Measured values published in ChEMBL document CHEMBL1201862, “PubChem BioAssay data set” (2004).
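Growth conditions: 96-well plates. Treatment: test compound, 48 hours, 5 concentrations. Analysis: linear interpolation between bracketing concentrations; unreached endpoints set to highest concentration. At the GI50, growth is halved.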 The source made the active and inactive calls. Cut-off read from the data, not from the text of the source: active = GI50 up to about 1.1 µM and inactive = higher.

Experiments:
Test in all cases: NCI-60 cell line screen, 48 h
ACHN = test system: ACHN
HOP-92 = test system: HOP-92
SN12C = test system: SN12C
SF-268 = test system: SF-268
HCC 2998 = test system: HCC 2998
CAKI-1 = test system: CAKI-1
HOP-62 = test system: HOP-62
NCI/ADR-RES = test system: NCI/ADR-RES
K562 = test system: K562
UACC-62 = test system: UACC-62
UACC-257 = test system: UACC-257
NCI-H460 = test system: NCI-H460
TK-10 = test system: TK-10
RPMI-8226 = test system: RPMI-8226
MDA-MB-231 = test system: MDA-MB-231
Hs-578T = test system: Hs-578T
A549 = test system: A549
KM12 = test system: KM12
NCI-H23 = test system: NCI-H23
IGROV-1 = test system: IGROV-1
MCF7 = test system: MCF7
MOLT-4 = test system: MOLT-4
HL-60 = test system: HL-60
OVCAR-4 = test system: OVCAR-4
T47D = test system: T47D
UO-31 = test system: UO-31
HCT-15 = test system: HCT-15
HCT-116 = test system: HCT-116
SF-539 = test system: SF-539
SNB-19 = test system: SNB-19
NCI-H226 = test system: NCI-H226
MDA-N = test system: MDA-N
OVCAR-8 = test system: OVCAR-8
CCRF-CEM = test system: CCRF-CEM
SK-MEL-28 = test system: SK-MEL-28
SK-MEL-2 = test system: SK-MEL-2
A498 = test system: A498
DU-145 = test system: DU-145
BT-549 = test system: BT-549
SF-295 = test system: SF-295
HT-29 = test system: HT-29
OVCAR-3 = test system: OVCAR-3
M14 = test system: M14
LOX IMVI = test system: LOX IMVI
PC-3 = test system: PC-3
RXF 393 = test system: RXF 393
MDA-MB-435 = test system: MDA-MB-435
SK-OV-3 = test system: SK-OV-3
COLO 205 = test system: COLO 205
SW-620 = test system: SW-620
SR = test system: SR
EKVX = test system: EKVX
U-251 = test system: U-251
786-0 = test system: 786-0
OVCAR-5 = test system: OVCAR-5
SNB-75 = test system: SNB-75
SK-MEL-5 = test system: SK-MEL-5
Malme-3M = test system: Malme-3M

O=C1/C(=C\c2ccc(Br)cc2)CCCc2ccccc21
GI50 (ACHN): 16.9 µM (inactive) | GI50 (HOP-92): 19.1 µM (inactive) | GI50 (SN12C): 16.5 µM (inactive) | GI50 (SF-268): 16.9 µM (inactive) | GI50 (HCC 2998): 14.7 µM (inactive) | GI50 (CAKI-1): 29.3 µM (inactive) | GI50 (HOP-62): 46.5 µM (inactive) | GI50 (NCI/ADR-RES): 13.4 µM (inactive) | GI50 (K562): 41.8 µM (inactive) | GI50 (UACC-62): 13.3 µM (inactive) | GI50 (UACC-257): 19.5 µM (inactive) | GI50 (NCI-H460): 17 µM (inactive) | GI50 (TK-10): 18.7 µM (inactive) | GI50 (RPMI-8226): 17.1 µM (inactive) | GI50 (MDA-MB-231): 18.5 µM (inactive) | GI50 (Hs-578T): 17.3 µM (inactive) | GI50 (A549): 31.6 µM (inactive) | GI50 (KM12): 15.6 µM (inactive) | GI50 (NCI-H23): 17.1 µM (inactive) | GI50 (IGROV-1): 16.4 µM (inactive) | GI50 (MCF7): 19.5 µM (inactive) | GI50 (MOLT-4): 18.1 µM (inactive) | GI50 (HL-60): 14.2 µM (inactive) | GI50 (OVCAR-4): 12.3 µM (inactive) | GI50 (T47D): 10.5 µM (inactive) | GI50 (UO-31): 14.6 µM (inactive) | GI50 (HCT-15): 12.4 µM | GI50 (HCT-116): 12.4 µM (inactive) | GI50 (SF-539): 15.5 µM (inactive) | GI50 (SNB-19): 16.6 µM (inactive) | GI50 (NCI-H226): 14.4 µM (inactive) | GI50 (MDA-N): 17.4 µM (inactive) | GI50 (OVCAR-8): 15 µM (inactive) | GI50 (CCRF-CEM): 19.7 µM (inactive) | GI50 (SK-MEL-28): 18.9 µM (inactive) | GI50 (SK-MEL-2): 19.1 µM (inactive) | GI50 (A498): 23.8 µM (inactive) | GI50 (DU-145): 15.5 µM (inactive) | GI50 (BT-549): 24 µM (inactive) | GI50 (SF-295): 22 µM (inactive) | GI50 (HT-29): 15 µM (inactive) | GI50 (OVCAR-3): 20.8 µM (inactive) | GI50 (M14): 29.6 µM (inactive) | GI50 (LOX IMVI): 16.3 µM (inactive) | GI50 (PC-3): 20.3 µM (inactive) | GI50 (RXF 393): 21 µM (inactive) | GI50 (MDA-MB-435): 19.2 µM (inactive) | GI50 (SK-OV-3): 35.6 µM (inactive) | GI50 (COLO 205): 17.9 µM (inactive) | GI50 (SW-620): 16.9 µM (inactive) | GI50 (SR): 23 µM (inactive) | GI50 (EKVX): 17.5 µM (inactive) | GI50 (U-251): 15 µM (inactive) | GI50 (786-0): 14.6 µM (inactive) | GI50 (OVCAR-5): 38.6 µM (inactive) | GI50 (SNB-75): 18.8 µM (inactive)

Clc1ccc(/C=C/c2nc(-c3ccc(Cl)cc3)cn3c2nc2ccccc23)cc1
GI50 (ACHN): > 100 µM (inactive) | GI50 (HOP-92): > 100 µM (inactive) | GI50 (SN12C): > 100 µM (inactive) | GI50 (SF-268): > 100 µM (inactive) | GI50 (HCC 2998): > 100 µM (inactive) | GI50 (HOP-62): > 100 µM (inactive) | GI50 (NCI/ADR-RES): > 100 µM (inactive) | GI50 (K562): > 100 µM (inactive) | GI50 (UACC-62): > 100 µM (inactive) | GI50 (UACC-257): > 100 µM (inactive) | GI50 (NCI-H460): > 100 µM (inactive) | GI50 (TK-10): > 100 µM (inactive) | GI50 (RPMI-8226): > 100 µM (inactive) | GI50 (MDA-MB-231): > 100 µM (inactive) | GI50 (Hs-578T): > 100 µM (inactive) | GI50 (A549): > 100 µM (inactive) | GI50 (KM12): > 100 µM (inactive) | GI50 (NCI-H23): > 100 µM (inactive) | GI50 (IGROV-1): 55.7 µM (inactive) | GI50 (MCF7): 50.5 µM (inactive) | GI50 (MOLT-4): 45.1 µM (inactive) | GI50 (HL-60): > 100 µM (inactive) | GI50 (OVCAR-4): > 100 µM (inactive) | GI50 (T47D): 88.7 µM (inactive) | GI50 (UO-31): > 100 µM (inactive) | GI50 (HCT-15): > 100 µM | GI50 (HCT-116): > 100 µM (inactive) | GI50 (SF-539): > 100 µM (inactive) | GI50 (SNB-19): > 100 µM (inactive) | GI50 (NCI-H226): > 100 µM (inactive) | GI50 (MDA-N): > 100 µM (inactive) | GI50 (CCRF-CEM): > 100 µM (inactive) | GI50 (SK-MEL-28): > 100 µM (inactive) | GI50 (SK-MEL-2): > 100 µM (inactive) | GI50 (A498): > 100 µM (inactive) | GI50 (DU-145): > 100 µM (inactive) | GI50 (BT-549): > 100 µM (inactive) | GI50 (HT-29): > 100 µM (inactive) | GI50 (OVCAR-3): > 100 µM (inactive) | GI50 (M14): > 100 µM (inactive) | GI50 (LOX IMVI): > 100 µM (inactive) | GI50 (PC-3): > 100 µM (inactive) | GI50 (RXF 393): > 100 µM (inactive) | GI50 (SK-MEL-5): > 100 µM (inactive) | GI50 (MDA-MB-435): > 100 µM (inactive) | GI50 (SK-OV-3): > 100 µM (inactive) | GI50 (COLO 205): > 100 µM (inactive) | GI50 (SW-620): > 100 µM (inactive) | GI50 (Malme-3M): > 100 µM (inactive) | GI50 (SR): > 100 µM (inactive) | GI50 (EKVX): > 100 µM (inactive) | GI50 (U-251): > 100 µM (inactive) | GI50 (786-0): > 100 µM (inactive) | GI50 (OVCAR-5): > 100 µM (inactive)
